This is an account of results in paper PMC8069941, “Potential Anticancer Lipoxygenase Inhibitors from the Red Sea-Derived Brown Algae Sargassum cinereum: An In-Silico-Supported In-Vitro Study” (Antibiotics, 2021).

The target of one assay is T1, 5-LOX (Homo sapiens, UniProt P09917).
T1 construct: purchased Cayman Chemical 60,402
T1 sequence (P09917 1-674): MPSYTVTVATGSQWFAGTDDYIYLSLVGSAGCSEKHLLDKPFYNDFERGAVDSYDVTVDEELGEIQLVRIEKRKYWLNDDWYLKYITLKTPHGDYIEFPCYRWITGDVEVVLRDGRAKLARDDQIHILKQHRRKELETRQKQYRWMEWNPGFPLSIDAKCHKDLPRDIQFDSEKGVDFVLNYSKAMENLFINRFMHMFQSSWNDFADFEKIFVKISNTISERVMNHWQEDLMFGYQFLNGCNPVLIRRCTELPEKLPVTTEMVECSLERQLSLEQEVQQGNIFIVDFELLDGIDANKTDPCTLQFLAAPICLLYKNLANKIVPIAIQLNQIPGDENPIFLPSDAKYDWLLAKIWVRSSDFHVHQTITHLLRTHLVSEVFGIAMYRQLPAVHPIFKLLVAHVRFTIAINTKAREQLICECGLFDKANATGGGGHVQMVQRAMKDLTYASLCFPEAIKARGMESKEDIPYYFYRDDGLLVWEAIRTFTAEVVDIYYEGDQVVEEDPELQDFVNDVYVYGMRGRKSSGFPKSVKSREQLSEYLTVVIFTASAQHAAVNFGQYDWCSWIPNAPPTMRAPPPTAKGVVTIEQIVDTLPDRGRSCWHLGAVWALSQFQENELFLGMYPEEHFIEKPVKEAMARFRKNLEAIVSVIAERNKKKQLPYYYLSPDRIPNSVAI
The experiment in a line: 5-LOX inhibition assay (human recombinant enzyme kit). The assay is classed as biochemical. How it is done:
The ability of the isolated compounds 12, 13, and 19 to inhibit 5-LOX and 15-LOX enzymes (IC50 and Ki values, µM) was determined using human recombinant enzyme assay kits (catalog no 60,402 and 10011263, Cayman Chemical, Ann Arbor, MI, USA) following manufacturer’s specifications. Stock solutions were freshly prepared before use, and buffer solution (0.1 M Tris-HCl, PH, 7.4) was used. 10 µL of each compound were prepared, dissolved in the least amount of DMSO and diluted with the stock solution to be in concentrations of (0.001, 0.1, 1, 5, 10 µM) in a final volume of […]. The kinetic parameters for both 5-LOX and 15-LOX were determined by measuring the increase in absorbance at 238 nm in an Agilent 8453 diode array spectrophotometer (Agilent Technologies, Santa Clara, CA, USA). Substrate concentration was ranged from 5 to 50 µM. Substrate concentrations (5, 10, 20, 30, 40, 50 µM) were monitored in triplicate for each sample [37]. Doxorubicin was used as a positive control.

The target of another assay is T2, 15-LOX (Homo sapiens, UniProt O15296).
T2 construct: purchased Cayman Chemical 10011263
T2 sequence (O15296 1-676): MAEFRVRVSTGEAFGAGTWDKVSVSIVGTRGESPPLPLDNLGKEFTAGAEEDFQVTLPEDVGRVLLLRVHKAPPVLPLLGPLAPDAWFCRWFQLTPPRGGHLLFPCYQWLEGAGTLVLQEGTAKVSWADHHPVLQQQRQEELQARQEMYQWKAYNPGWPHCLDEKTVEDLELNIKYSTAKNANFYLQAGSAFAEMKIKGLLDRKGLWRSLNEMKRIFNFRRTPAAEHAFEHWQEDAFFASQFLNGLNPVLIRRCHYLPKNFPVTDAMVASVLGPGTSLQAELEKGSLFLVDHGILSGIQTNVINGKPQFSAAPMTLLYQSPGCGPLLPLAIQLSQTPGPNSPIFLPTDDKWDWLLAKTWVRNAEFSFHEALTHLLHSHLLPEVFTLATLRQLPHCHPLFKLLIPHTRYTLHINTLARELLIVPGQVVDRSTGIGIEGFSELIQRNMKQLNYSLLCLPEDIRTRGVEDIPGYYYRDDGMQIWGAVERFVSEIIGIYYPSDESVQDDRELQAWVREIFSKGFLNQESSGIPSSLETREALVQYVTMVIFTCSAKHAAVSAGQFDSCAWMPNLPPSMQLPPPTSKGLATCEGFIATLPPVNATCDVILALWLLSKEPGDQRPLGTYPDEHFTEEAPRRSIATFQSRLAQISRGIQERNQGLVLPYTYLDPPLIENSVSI
Description: 15-LOX inhibition assay (human recombinant enzyme kit). The assay is classed as biochemical. How it is done: Stock solutions were freshly prepared before use, and buffer solution (0.1 M Tris-HCl, PH, 7.4) was used. 10 µL of each compound were prepared, dissolved in the least amount of DMSO and diluted with the stock solution to be in concentrations of (0.001, 0.1, 1, 5, 10 µM) in a final volume of 210 mL. […] Substrate concentration was ranged from 5 to 50 µM. Substrate concentrations (5, 10, 20, 30, 40, 50 µM) were monitored in triplicate for each sample [37]. Doxorubicin was used as a positive control.

Where [1] appears, read: in vitro, human recombinant enzyme.

A word on the Ki: it is the dissociation constant of the complex between target and ligand, obtained from inhibition or displacement. A word on the IC50: it is the concentration needed to halve the response being measured. For `CCCCC/C=C\C/C=C\C/C=C\C/C=C\CCCCOCC(O)CO[C@H]1O[C@H](CO)[C@@H](O)[C@H](O)[C@H]1O` (stereo partly drawn) [compound 19, 1-O-arachidonyl-3-O-(α-D-glucopyranosyl) glycerol], the Ki was determined as 1.4 ± 0.2 µM at 5-LOX (in vitro inhibition constant) and 4.2 ± 0.1 µM on 15-LOX (in vitro inhibition constant). Besides, the half-maximal inhibitory concentration (IC50) on 5-LOX (setting [1]) amounted to 2.1 ± 0.4 µM; at 15-LOX (setting [1]), 6.7 ± 0.3 µM.
